Numbers after ± are expanded uncertainties.
Columns and labels:
[1] = refractive index (Na D-line) (dimensionless); xn = mol fraction of the nth substance listed; settings: 101 kPa, Liquid, Standard Abbe refractometry
[2] = xn = mol fraction of the nth substance listed; settings: 101 kPa, Liquid; for speed of sound: Pulse-echo method

c1ccccc1 [benzene] + C1CCCCC1
x2 = 0
Settings | mass density, [2] [kg/m3] | refractive index, [1] | speed of sound, [2] [m/s]
283.15 K | 889.5 ± 0.3 | 1.50765 ± 0.00073 | 1371 ± 2
298.15 K | 873.9 ± 0.4 | 1.49774 ± 0.00073 | 1299 ± 2

c1ccccc1 [benzene] + C1CCCCCCC1
298.15 K, x2 = 0
Settings | mass density [kg/m3] | refractive index | speed of sound [m/s]
[1] | – | 1.49774 ± 0.00068 | –
[2] | 873.6 ± 0.4 | – | 1299 ± 2

c1ccccc1 [benzene] + CC1CCCCC1
x2 = 0
Settings | mass density, [2] [kg/m3] | refractive index, [1] | speed of sound, [2] [m/s]
283.15 K | 889.5 ± 0.3 | 1.50765 ± 0.00073 | 1371 ± 2
298.15 K | 873.6 ± 0.4 | 1.49774 ± 0.00073 | 1299 ± 2

C1CCCCC1 [cyclohexane] + CCc1ccccc1
x1 = 1
Settings | mass density, [2] [kg/m3] | refractive index, [1] | speed of sound, [2] [m/s]
283.15 K | 787.8 ± 0.5 | 1.43193 ± 0.00064 | 1329 ± 2
298.15 K | 773.9 ± 0.5 | 1.4236 ± 0.00064 | 1255 ± 2

C1CCCCC1 [cyclohexane] + Cc1ccccc1
Settings | mass density, [2] [kg/m3] | refractive index, [1] | speed of sound, [2] [m/s]
283.15 K, x1 = 0.0484 | 871 ± 0.4 | 1.4988 ± 0.00068 | 1365 ± 2
283.15 K, x1 = 0.099 | 865.8 ± 0.4 | 1.49476 ± 0.00068 | 1360 ± 2
283.15 K, x1 = 0.1997 | 855.8 ± 0.4 | 1.48684 ± 0.00068 | 1351 ± 2
283.15 K, x1 = 0.2973 | 846.1 ± 0.4 | 1.47919 ± 0.00068 | 1344 ± 2
283.15 K, x1 = 0.3975 | 836.6 ± 0.4 | 1.47167 ± 0.00068 | 1337 ± 2
283.15 K, x1 = 0.4999 | 827.3 ± 0.4 | 1.46416 ± 0.00068 | 1331 ± 2
283.15 K, x1 = 0.5881 | 819.6 ± 0.4 | 1.45803 ± 0.00068 | 1328 ± 2
283.15 K, x1 = 0.699 | 810.3 ± 0.4 | 1.45054 ± 0.00068 | 1325 ± 2
283.15 K, x1 = 0.7985 | 802.4 ± 0.5 | 1.44407 ± 0.00068 | 1324 ± 2
283.15 K, x1 = 0.8961 | 795.1 ± 0.5 | 1.43794 ± 0.00068 | 1325 ± 2
283.15 K, x1 = 0.9497 | 791.3 ± 0.5 | 1.43489 ± 0.00068 | 1327 ± 2
283.15 K, x1 = 1 | – | – | 1329 ± 2
298.15 K, x1 = 0.0484 | 857.2 ± 0.4 | 1.49021 ± 0.00068 | 1300 ± 2
298.15 K, x1 = 0.099 | 852 ± 0.4 | 1.48614 ± 0.00068 | 1294 ± 2
298.15 K, x1 = 0.1997 | 842 ± 0.4 | 1.47829 ± 0.00068 | 1285 ± 2
298.15 K, x1 = 0.2973 | 832.3 ± 0.4 | 1.47073 ± 0.00068 | 1276 ± 2
298.15 K, x1 = 0.3975 | 822.8 ± 0.4 | 1.4632 ± 0.00068 | 1269 ± 2
298.15 K, x1 = 0.4999 | 813.4 ± 0.4 | 1.4558 ± 0.00068 | 1263 ± 2
298.15 K, x1 = 0.5881 | 805.7 ± 0.4 | 1.44964 ± 0.00068 | 1258 ± 2
298.15 K, x1 = 0.699 | 796.4 ± 0.5 | 1.44216 ± 0.00068 | 1254 ± 2
298.15 K, x1 = 0.7985 | 788.4 ± 0.5 | 1.4358 ± 0.00068 | 1252 ± 2
298.15 K, x1 = 0.8961 | 781.1 ± 0.5 | 1.42971 ± 0.00068 | 1252 ± 2
298.15 K, x1 = 0.9497 | 777.4 ± 0.5 | 1.42663 ± 0.00068 | 1253 ± 2
298.15 K, x1 = 1 | 773.9 ± 0.5 | 1.4236 ± 0.00068 | 1255 ± 2

C1CCCCC1 [cyclohexane] + c1ccccc1
Settings | mass density, [2] [kg/m3] | refractive index, [1] | speed of sound, [2] [m/s]
283.15 K, x1 = 0.047 | 882.7 ± 0.4 | 1.50275 ± 0.00072 | 1364 ± 2
283.15 K, x1 = 0.0984 | 875.6 ± 0.4 | 1.49741 ± 0.00073 | 1358 ± 2
283.15 K, x1 = 0.1978 | 862.4 ± 0.4 | 1.48772 ± 0.00073 | 1346 ± 2
283.15 K, x1 = 0.2968 | 850.4 ± 0.4 | 1.47886 ± 0.0007 | 1338 ± 2
283.15 K, x1 = 0.3929 | 839.4 ± 0.4 | 1.47071 ± 0.0007 | 1331 ± 2
283.15 K, x1 = 0.4996 | 828.3 ± 0.4 | 1.46247 ± 0.00069 | 1326 ± 2
283.15 K, x1 = 0.6003 | 818.8 ± 0.4 | 1.45532 ± 0.00067 | 1323 ± 2
283.15 K, x1 = 0.7022 | 809.9 ± 0.4 | 1.44865 ± 0.00067 | 1322 ± 2
283.15 K, x1 = 0.7963 | 802.3 ± 0.5 | 1.44324 ± 0.00068 | 1322 ± 2
283.15 K, x1 = 0.8954 | 794.9 ± 0.5 | 1.43781 ± 0.00066 | 1325 ± 2
283.15 K, x1 = 0.9501 | 791.2 ± 0.5 | 1.43453 ± 0.00065 | 1327 ± 2
283.15 K, x1 = 1 | 787.8 ± 0.5 | 1.43193 ± 0.00064 | 1329 ± 2
298.15 K, x1 = 0.047 | 867.1 ± 0.4 | 1.49298 ± 0.00072 | 1293 ± 2
298.15 K, x1 = 0.0984 | 859.9 ± 0.4 | 1.48771 ± 0.00071 | 1286 ± 2
298.15 K, x1 = 0.1978 | 847 ± 0.4 | 1.47808 ± 0.00069 | 1275 ± 2
298.15 K, x1 = 0.2968 | 835.2 ± 0.4 | 1.46965 ± 0.00069 | 1266 ± 2
298.15 K, x1 = 0.3929 | 824.5 ± 0.4 | 1.46157 ± 0.00067 | 1259 ± 2
298.15 K, x1 = 0.4996 | 813.6 ± 0.4 | 1.45354 ± 0.00066 | 1254 ± 2
298.15 K, x1 = 0.6003 | 804.2 ± 0.4 | 1.44654 ± 0.00065 | 1251 ± 2
298.15 K, x1 = 0.7022 | 795.5 ± 0.5 | 1.44001 ± 0.00065 | 1249 ± 2
298.15 K, x1 = 0.7963 | 788 ± 0.5 | 1.43431 ± 0.00066 | 1249 ± 2
298.15 K, x1 = 0.8954 | 780.8 ± 0.5 | 1.42891 ± 0.00067 | 1250 ± 2
298.15 K, x1 = 0.9501 | 777.2 ± 0.5 | 1.42611 ± 0.00064 | 1252 ± 2
298.15 K, x1 = 1 | 773.9 ± 0.5 | 1.4236 ± 0.00064 | 1255 ± 2

C1CCCCCCC1 [cyclooctane] + CCc1ccccc1
298.15 K
Settings | mass density, [2] [kg/m3] | refractive index, [1] | speed of sound, [2] [m/s]
x1 = 0.0465 | 860.4 ± 0.4 | 1.49082 ± 0.00068 | 1321 ± 2
x1 = 0.0962 | 858.3 ± 0.4 | 1.48858 ± 0.00068 | 1322 ± 2
x1 = 0.1961 | 854.1 ± 0.4 | 1.48405 ± 0.00068 | 1327 ± 2
x1 = 0.2944 | 850.3 ± 0.4 | 1.47983 ± 0.00068 | 1332 ± 2
x1 = 0.3975 | 846.6 ± 0.4 | 1.47562 ± 0.00068 | 1339 ± 2
x1 = 0.4959 | 843.4 ± 0.4 | 1.47185 ± 0.00069 | 1346 ± 2
x1 = 0.5935 | 840.4 ± 0.5 | 1.46828 ± 0.00069 | 1353 ± 2
x1 = 0.6929 | 837.6 ± 0.5 | 1.46489 ± 0.00069 | 1361 ± 2
x1 = 0.7954 | 835.2 ± 0.5 | 1.4616 ± 0.0007 | 1370 ± 2
x1 = 0.8899 | 833.2 ± 0.5 | 1.45885 ± 0.0007 | 1379 ± 2
x1 = 0.9497 | 832.1 ± 0.5 | 1.45726 ± 0.0007 | 1385 ± 2
x1 = 1 | 831.5 ± 0.5 | 1.45598 ± 0.0007 | 1391 ± 2

C1CCCCCCC1 [cyclooctane] + Cc1ccccc1
298.15 K
Settings | mass density, [2] [kg/m3] | refractive index, [1] | speed of sound, [2] [m/s]
x1 = 0.0488 | 859.8 ± 0.4 | 1.49121 ± 0.00068 | 1307 ± 2
x1 = 0.1031 | 857 ± 0.4 | 1.48824 ± 0.00068 | 1309 ± 2
x1 = 0.2021 | 852.5 ± 0.4 | 1.48313 ± 0.00068 | 1315 ± 2
x1 = 0.2973 | 848.5 ± 0.4 | 1.47861 ± 0.00068 | 1321 ± 2
x1 = 0.4014 | 844.7 ± 0.4 | 1.47411 ± 0.00068 | 1329 ± 2
x1 = 0.5 | 841.5 ± 0.4 | 1.47026 ± 0.00069 | 1337 ± 2
x1 = 0.6005 | 838.7 ± 0.5 | 1.46667 ± 0.00069 | 1347 ± 2
x1 = 0.6976 | 836.4 ± 0.5 | 1.46358 ± 0.00069 | 1356 ± 2
x1 = 0.7981 | 834.4 ± 0.5 | 1.46073 ± 0.0007 | 1367 ± 2
x1 = 0.9007 | 832.8 ± 0.5 | 1.45814 ± 0.0007 | 1378 ± 2
x1 = 0.9494 | 832.1 ± 0.5 | 1.45705 ± 0.0007 | 1384 ± 2
x1 = 1 | 831.5 ± 0.5 | 1.45598 ± 0.0007 | 1391 ± 2

C1CCCCCCC1 [cyclooctane] + c1ccccc1
298.15 K
Settings | mass density, [2] [kg/m3] | refractive index, [1] | speed of sound, [2] [m/s]
x1 = 0.0522 | 869.3 ± 0.4 | 1.49384 ± 0.00068 | 1300 ± 2
x1 = 0.102 | 865.4 ± 0.4 | 1.49019 ± 0.00068 | 1301 ± 2
x1 = 0.203 | 858.5 ± 0.4 | 1.48375 ± 0.00068 | 1306 ± 2
x1 = 0.3029 | 852.8 ± 0.4 | 1.47827 ± 0.00068 | 1313 ± 2
x1 = 0.4033 | 847.9 ± 0.4 | 1.47346 ± 0.00068 | 1322 ± 2
x1 = 0.5002 | 843.9 ± 0.4 | 1.46955 ± 0.00069 | 1331 ± 2
x1 = 0.5985 | 840.5 ± 0.5 | 1.46607 ± 0.00069 | 1342 ± 2
x1 = 0.7025 | 837.5 ± 0.5 | 1.46284 ± 0.00069 | 1354 ± 2
x1 = 0.7983 | 835.2 ± 0.5 | 1.4603 ± 0.0007 | 1365 ± 2
x1 = 0.8946 | 833.3 ± 0.5 | 1.45808 ± 0.0007 | 1377 ± 2
x1 = 0.9504 | 832.4 ± 0.5 | 1.45694 ± 0.0007 | 1384 ± 2
x1 = 1 | 831.5 ± 0.5 | 1.45598 ± 0.0007 | 1391 ± 2

Reference: the NIST ThermoML archive (doi:10.1021/je900468u)
